ChEMBL document CHEMBL3856212, “Synthesis, anti-proliferative and genotoxicity studies of 6-chloro-5-(2-substituted-ethyl)-1,3-dihydro-2H-indol-2-ones and 6-chloro-5-(2-chloroethyl)-3-(alkyl/ary-2-ylidene)indolin-2-ones” (Eur J Med Chem, 2016)

Assays:
[1] = Cytotoxicity against human NCI-H522 cells assessed as growth inhibition after 48 hrs by SRB assay; type: functional; conditions: NCI-H522, 48 h; for CC50: read-out: LD50 (the source's name)
[2] = Cytotoxicity against human HCC2998 cells assessed as growth inhibition after 48 hrs by SRB assay; type: functional; conditions: HCC 2998, 48 h; for CC50: read-out: LD50 (the source's name)
[3] = Cytotoxicity against human HCT116 cells assessed as growth inhibition after 48 hrs by SRB assay; type: functional; conditions: HCT-116, 48 h; for CC50: read-out: LD50 (the source's name)
[4] = Cytotoxicity against human SF268 cells assessed as growth inhibition after 48 hrs by SRB assay; type: functional; conditions: SF-268, 48 h; for CC50: read-out: LD50 (the source's name)
[5] = Cytotoxicity against human SF295 cells assessed as growth inhibition after 48 hrs by SRB assay; type: functional; conditions: SF-295, 48 h; for CC50: read-out: LD50 (the source's name)
[6] = Cytotoxicity against human SNB75 cells assessed as growth inhibition after 48 hrs by SRB assay; type: functional; conditions: SNB-75, 48 h; for CC50: read-out: LD50 (the source's name)
[7] = Cytotoxicity against human SK-MEL-2 cells assessed as growth inhibition after 48 hrs by SRB assay; type: functional; conditions: SK-MEL-2, 48 h; for CC50: read-out: LD50 (the source's name)
[8] = Cytotoxicity against human SK-MEL-28 cells assessed as growth inhibition after 48 hrs by SRB assay; type: functional; conditions: SK-MEL-28, 48 h; for CC50: read-out: LD50 (the source's name)
[9] = Cytotoxicity against human OVCAR5 cells assessed as growth inhibition after 48 hrs by SRB assay; type: functional; conditions: OVCAR-5, 48 h; for CC50: read-out: LD50 (the source's name)
[10] = Cytotoxicity against human OVCAR8 cells assessed as growth inhibition after 48 hrs by SRB assay; type: functional; conditions: OVCAR-8, 48 h; for CC50: read-out: LD50 (the source's name)
[11] = Cytotoxicity against human 786-0 cells assessed as growth inhibition after 48 hrs by SRB assay; type: functional; conditions: 786-0, 48 h; for CC50: read-out: LD50 (the source's name)
[12] = Cytotoxicity against human ACHN cells assessed as growth inhibition after 48 hrs by SRB assay; type: functional; conditions: for CC50: read-out: LD50 (the source's name)
[13] = Cytotoxicity against human MCF7 cells assessed as growth inhibition after 48 hrs by SRB assay; type: functional; conditions: MCF7, 48 h; for CC50: read-out: LD50 (the source's name)
[14] = Cytotoxicity against human BT549 cells assessed as growth inhibition after 48 hrs by SRB assay; type: functional; conditions: BT-549, 48 h; for CC50: read-out: LD50 (the source's name)
[15] = Cytotoxicity against human A549 cells assessed as assessed as growth inhibition at 10^-5 M after 48 hrs by SRB assay relative to control; type: functional; conditions: A549, 48 h, read-out: GI
[16] = Cytotoxicity against human NCI-H460 cells assessed as assessed as growth inhibition at 10^-5 M after 48 hrs by SRB assay relative to control; type: functional; conditions: NCI-H460, 48 h, read-out: GI
[17] = Cytotoxicity against human HT-29 cells assessed as assessed as growth inhibition at 10^-5 M after 48 hrs by SRB assay relative to control; type: functional; conditions: HT-29, 48 h, read-out: GI
[18] = Cytotoxicity against human U251 cells assessed as assessed as growth inhibition at 10^-5 M after 48 hrs by SRB assay relative to control; type: functional; conditions: U-251, 48 h, read-out: GI
[19] = Cytotoxicity against human MALME-3M cells assessed as assessed as growth inhibition at 10^-5 M after 48 hrs by SRB assay relative to control; type: functional; conditions: read-out: GI
[20] = Cytotoxicity against human M14 cells assessed as assessed as growth inhibition at 10^-5 M after 48 hrs by SRB assay relative to control; type: functional; conditions: M14, 48 h, read-out: GI
[21] = Cytotoxicity against human MDA-MB-435 cells assessed as assessed as growth inhibition at 10^-5 M after 48 hrs by SRB assay relative to control; type: functional; conditions: MDA-MB-435, 48 h, read-out: GI
[22] = Cytotoxicity against human SK-MEL-28 cells assessed as assessed as growth inhibition at 10^-5 M after 48 hrs by SRB assay relative to control; type: functional; conditions: SK-MEL-28, 48 h, read-out: GI
[23] = Cytotoxicity against human SK-MEL-5 cells assessed as assessed as growth inhibition at 10^-5 M after 48 hrs by SRB assay relative to control; type: functional; conditions: SK-MEL-5, 48 h, read-out: GI
[24] = Cytotoxicity against human OVCAR3 cells assessed as assessed as growth inhibition at 10^-5 M after 48 hrs by SRB assay relative to control; type: functional; conditions: OVCAR-3, 48 h, read-out: GI
[25] = Cytotoxicity against human OVCAR4 cells assessed as assessed as growth inhibition at 10^-5 M after 48 hrs by SRB assay relative to control; type: functional; conditions: OVCAR-4, 48 h, read-out: GI
[26] = Cytotoxicity against human NCI-ADR-RES cells assessed as assessed as growth inhibition at 10^-5 M after 48 hrs by SRB assay relative to control; type: functional; conditions: read-out: GI
[27] = Cytotoxicity against human ACHN cells assessed as assessed as growth inhibition at 10^-5 M after 48 hrs by SRB assay relative to control; type: functional; conditions: read-out: GI
[28] = Cytotoxicity against human SN12C cells assessed as assessed as growth inhibition at 10^-5 M after 48 hrs by SRB assay relative to control; type: functional; conditions: read-out: GI
[29] = Cytotoxicity against human MDA-MB-231 cells assessed as assessed as growth inhibition at 10^-5 M after 48 hrs by SRB assay relative to control; type: functional; conditions: MDA-MB-231, 48 h, read-out: GI
[30] = Cytotoxicity against human T47D cells assessed as assessed as growth inhibition at 10^-5 M after 48 hrs by SRB assay relative to control; type: functional; conditions: read-out: GI
Mus musculus [31] = species: Mus musculus; test: Genotoxicity in mouse EAC cells at 250 uM after 24 hrs by micronucleus assay (reference value: 3.5 +/- 0.30%); type: toxicity, cell-based; conditions: ehrlich
Mus musculus [32] = species: Mus musculus; test: Genotoxicity in mouse EAC cells at 500 uM after 24 hrs by micronucleus assay (reference value: 3.5 +/- 0.30%); type: toxicity, cell-based; conditions: ehrlich
[33] = Induction of apoptosis in mouse EAC cells at 250 uM after 24 hrs by acridine orange dye-based fluorescence microscopy (reference value: 0.66 +/- 0.33%); type: cell-based; conditions: ehrlich
[34] = Induction of apoptosis in mouse EAC cells at 500 uM after 24 hrs by acridine orange dye-based fluorescence microscopy (reference value: 0.66 +/- 0.33%); type: cell-based; conditions: ehrlich
[35] = Cytotoxicity against human NCI-H322M cells assessed as assessed as growth inhibition at 10^-5 M after 48 hrs by SRB assay relative to control; type: functional; conditions: read-out: GI

O=C1Cc2cc(CCn3ccnc3)c(Cl)cc2N1
GI50 [1]: 4.74 µM | TGI [1]: 4.79 µM | CC50 [1]: > 1 µM | GI50 [2]: 3.22 µM | TGI [2]: > 1 µM | CC50 [2]: > 1 µM | GI50 [3]: 1.31 µM | TGI [3]: > 1 µM | CC50 [3]: > 1 µM | GI50 [4]: 1.21 µM | TGI [4]: > 1 µM | CC50 [4]: > 1 µM | GI50 [5]: 7.87 µM | TGI [5]: > 1 µM | CC50 [5]: > 1 µM | GI50 [6]: 2.16 µM | TGI [6]: > 1 µM | CC50 [6]: > 1 µM | GI50 [7]: 5.78 µM | TGI [7]: 7.36 µM | CC50 [7]: > 1 µM | GI50 [8]: 2.97 µM | TGI [8]: > 1 µM | CC50 [8]: > 1 µM | GI50 [9]: 4.48 µM | TGI [9]: > 1 µM | CC50 [9]: > 1 µM | GI50 [10]: 2.41 µM | TGI [10]: > 1 µM | CC50 [10]: > 1 µM | GI50 [11]: 1 µM | TGI [11]: > 1 µM | CC50 [11]: > 1 µM | GI50 [12]: 2.03 µM | TGI [12]: > 1 µM | CC50 [12]: > 1 µM | GI50 [13]: 4.12 µM | TGI [13]: > 1 µM | CC50 [13]: > 1 µM | GI50 [14]: 9.51 µM | TGI [14]: > 1 µM | CC50 [14]: > 1 µM | inhibition of growth at 10 µM [15]: 33.3% | inhibition of growth at 10 µM [16]: 52.6% | inhibition of growth at 10 µM [17]: 1.22% | inhibition of growth at 10 µM [18]: 32.7% | inhibition of growth at 10 µM [19]: 2.24% | inhibition of growth at 10 µM [20]: 76.3% | inhibition of growth at 10 µM [21]: 72% | inhibition of growth at 10 µM [22]: 32.2% | inhibition of growth at 10 µM [23]: 67.8% | inhibition of growth at 10 µM [24]: 36.5% | inhibition of growth at 10 µM [25]: 2.81% | inhibition of growth at 10 µM [26]: 54.3% | inhibition of growth at 10 µM [27]: 21.7% | inhibition of growth at 10 µM [28]: 48.8% | inhibition of growth at 10 µM [29]: 54.5% | inhibition of growth at 10 µM [30]: 5.51% | Activity (Mus musculus [31]): 2.83% | Activity (Mus musculus [32]): 4.83% | Activity [33]: 0.5% | Activity [34]: 0.53% | inhibition of growth at 10 µM [35]: 9.68%

O=C1Cc2cc(CCN3CCNCC3)c(Cl)cc2N1
GI50 [1]: 4.88 µM | TGI [1]: > 1 µM | CC50 [1]: > 1 µM | GI50 [2]: 4.66 µM | TGI [2]: > 1 µM | CC50 [2]: > 1 µM | GI50 [3]: 1 µM | TGI [3]: > 1 µM | CC50 [3]: > 1 µM | GI50 [4]: 1.27 µM | TGI [4]: > 1 µM | CC50 [4]: > 1 µM | GI50 [5]: 4.2 µM | TGI [5]: > 1 µM | CC50 [5]: > 1 µM | GI50 [6]: 1.56 µM | TGI [6]: 7.54 µM | CC50 [6]: > 1 µM | GI50 [7]: 1.52 µM | TGI [7]: > 1 µM | CC50 [7]: > 1 µM | GI50 [8]: 3.7 µM | TGI [8]: > 1 µM | CC50 [8]: > 1 µM | GI50 [9]: 7.92 µM | TGI [9]: > 1 µM | CC50 [9]: > 1 µM | GI50 [10]: 3.68 µM | TGI [10]: > 1 µM | CC50 [10]: > 1 µM | GI50 [11]: 1 µM | TGI [11]: > 1 µM | CC50 [11]: > 1 µM | GI50 [12]: 1 µM | TGI [12]: > 1 µM | CC50 [12]: > 1 µM | GI50 [13]: 3.65 µM | TGI [13]: > 1 µM | CC50 [13]: > 1 µM | GI50 [14]: 8.18 µM | TGI [14]: > 1 µM | CC50 [14]: > 1 µM | inhibition of growth at 10 µM [15]: 51.1% | inhibition of growth at 10 µM [16]: 25.7% | inhibition of growth at 10 µM [17]: 11.9% | inhibition of growth at 10 µM [18]: 43% | inhibition of growth at 10 µM [19]: 19.6% | inhibition of growth at 10 µM [20]: 75.5% | inhibition of growth at 10 µM [21]: 82% | inhibition of growth at 10 µM [22]: 42.2% | inhibition of growth at 10 µM [23]: 65.4% | inhibition of growth at 10 µM [24]: 17.2% | inhibition of growth at 10 µM [25]: 19% | inhibition of growth at 10 µM [26]: 51.6% | inhibition of growth at 10 µM [27]: 35.5% | inhibition of growth at 10 µM [28]: 52.8% | inhibition of growth at 10 µM [29]: 64.1% | inhibition of growth at 10 µM [30]: 17.3% | Activity (Mus musculus [31]): 4.43% | Activity (Mus musculus [32]): 6.26% | Activity [33]: 1.06% | Activity [34]: 0.86% | inhibition of growth at 10 µM [35]: 19.3%
